Source: patent US10154988B2, “Methods and compositions for treating schizophrenia” (The Johns Hopkins University, priority 2012, dated 2018)
Entries after “also recorded” stand apart in the source; their conditions may differ.

Assays:
[1] = tested on: entorhinal cortex (EC) of aMCI subjects; assay: fMRI activity in entorhinal cortex during lure stimuli correctly identified as similar; format: in vivo, human; conditions: 125 mg twice a day for two weeks vs placebo
Protocol: A within-subjects trial of 8 weeks duration, involving 17 amnestic MCI (aMCI) subjects and 17 age-matched controls with a low dose treatment of levetiracetam is conducted. During the course of the study, each aMCI subject receives both drug and placebo treatments separately in two periods of two weeks each, with the order of treatments among different aMCI subjects being counterbalanced (see FIG. 7). Age-matched control subjects that are treated with placebo serve as a further control. Cognitive testing and fMRI imaging data are obtained from the subjects after each two week period of drug/placebo treatment. As described above, the drug treatment period is the two weeks preceding Visit 1 or 2 (with the two week period preceding the other Visit being the placebo phase). […] Imaging data are obtained through high-resolution methods developed in the Stark laboratory. Data are collected on a Phillips 3 Tesla scanner (Eindhoven, The Netherlands) equipped with an 8-channel SENSE (Sensitivity Encoding) head coil, located at the F.M. Kirby Research Center for Functional Brain Imaging at the Kennedy Krieger Institute (Baltimore, Md.). […] Group data are analyzed using a two-way Analysis of Variance (ANOVA) with trial types and group as fixed factors, and subject as a random factor nested within group. […]

[2] = tested on: reelin in Entorhinal Cortex (EC2); assay: reelin mRNA in situ hybridization in entorhinal cortex after 4-week levetiracetam; format: in vivo, rat; conditions: 10 mg/kg/day, osmotic minipumps, 28 days; vs AI-VEH t(13)=2.386, p=0.033
Protocol: Under isoflurane anesthesia, memory-impaired aged rats are implanted subcutaneously in the intrascapular region with osmotic mini-pumps (ALZET,
Durect Corporation, Cupertino, Calif.) with levetiracetam (10 mg/kg/day) or saline vehicle for four weeks prior to perfusion. Young rats, which served as controls, receive either saline vehicle in mini-pumps or no implantation.
At the end of the 4-week treatment period, rats are anesthetized with isoflurane and perfused transcardiacally with 0.1 M phosphate buffer saline, followed by 4% paraformaldehyde in phosphate buffer. Brains are removed and post-fixed in paraformaldehyde overnight. The brains are then moved into 4% paraformaldehyde in phosphate buffer containing 16% sucrose. […]
Probe templates are synthesized as described in Haberman et al. (2008). […] The final probe is resuspended in RNase-free water and the specific activity is determined by scintillation counter.
In situ hybridization is carried out as described by Haberman et al., (2008). […] Slides are dried overnight, exposed to a phosphoimager screen, and quantified by using ImageQuant (GE Healthcare). Digital images are acquired of entorhinal cortical sections from the same levels for all animals and the subregion of interest is outlined and quantified. […]

In the case of CC[C@@H](C(N)=O)N1CCCC1=O [levetiracetam, (2S)-2-(2-oxopyrrolidin-1-yl) butanamide], the “EC activity during memory judgments (fMRI)” value [1] was “normalizes activity” and the “levels of reelin (mRNA expression) in Entorhinal Cortex (EC2)” value [2] was “restores the levels of reelin; also recorded: significantly increases the expression of reelin; also recorded: restores reelin in Entorhinal Cortex (EC2)”.
